Measurements from patent US7432264B2, “Antimicrobial biaryl compounds” (Isis Pharmaceuticals, Inc., priority 2000, dated 2008).
In brackets after ≈: the same amount, converted by molar mass.

Tests used:
[1] = tested on: E. coli ATCC 25922; assay: Minimum inhibitory concentration (MIC), E. coli; assay type: cell-based, Escherichia coli; conditions: Escherichia coli, ATCC25922, 24 h, read-out: MIC (E. coli)
Protocol: (§1) Bacterial Strains. The Streptococcus pyogenes strains, Klebsiella pneumoniae, Escherichia coli, Staphylococcus aureus, Enterococcus faecalis used in the antibacterial activity studies ATCC 14289, 49399, 13883, 25922, 13709, 29212, respectively, are obtained from the American Type Culture Collection, Rockville, Md. The strain E. coli imp— is a mutant strain of wild type E. coli with increased outer membrane permeability and was grown in LB broth at 37 °C. S. pyogenes strain is grown in Todd-Hewitt broth. S. aureus is grown in trypticase soy broth, E. faecalis in Todd-Hewitt broth, wild type E. coli and K. pneumoniae, in nutrient broth.
(§2) Determination of Minimum Inhibitory Concentrations (MICs). The assays were carried out in […] volume in duplicate in 96-well clear flat-bottom plates. The bacterial suspension from an overnight culture growth in appropriate medium was added to a solution of test compound in 4% DMSO in water. Final bacterial inoculum was approximately 10^5-10^6 CFU/well. The percent growth of the bacteria in test wells relative to that observed for a well containing no compound was determined by measuring absorbance at 595 nm (A595) after 24 h. […] Both ampicillin and tetracycline is used as antibiotic-positive controls in each screening assay for S. pyogenes, E. coli imp-, E. coli, S. aureus, E. faecalis, K pneumoniae and P. vulgaris. Ciprofloxacin is used as an antibiotic positive control in each screening assay for P. aeruginosa.

[2] = tested on: S. aureus ATCC 13709; assay: Minimum inhibitory concentration (MIC), S. aureus; assay type: cell-based, Staphylococcus aureus; conditions: Staphylococcus aureus, ATCC13709, 24 h, read-out: MIC (S. aureus)
Protocol: as §1, §2

[3] = tested on: E. coli S30 bacterial extract (protein synthesis); assay type: biochemical; conditions: at 200:M
Protocol: Coupled Bacterial Transcription/Translation Assay. The DNA template, pBestLuc™ (Promega), is a plasmid containing a reporter gene for firefly luciferase fused to a strong tac promoter and ribosome binding site. Messenger RNA from 1 μg pBestLuc was transcribed and translated in E. coli S30 bacterial extract in the presence or absence of test compound. Compounds were tested in a black 96 well microtiter plate with an assay volume of 35 μL. Each test well contained: 5 μL test compound, 13 μL S30 premix (Promega), 4 μL 10× complete amino acid mix (1 mM each), 5 μL E. coli S30 extract and 8 μL of […] pBestLuc™. The transcription/translation reaction was incubated for 35 minutes at 37° C. followed by detection of functional luciferase with the addition of 30 μL LucLite™ (Packard). Light output was quantitated on a Packard TopCount.

Question: For CN(C)CCCOc1ccc(C(NC(=O)c2ccc(-c3cccc(NC(=O)c4ccc(-c5ccccc5F)cc4)c3)o2)C(=O)N2CCNCC2)cc1 (centres unmarked) [Compound 53], which MIC [1] is on record?
Answer: 13 to 25 mM (≈ 9150 to 17600 µg/mL)

Question: And the MIC [2]?
Answer: 6 to 13 mM (≈ 4220 to 9150 µg/mL)

Question: What does the source list for CN(C)CCCOc1ccc(C(C(=O)N2CCNCC2)N(C)Cc2ccc(-c3cccc(NC(=O)c4ccc(-c5ccccc5)cc4)c3)o2)cc1 (centres unmarked) [Compound 64]?
Answer: MIC [1]: 6 to 13 mM (≈ 4120 to 8920 µg/mL); MIC [2]: 3 to 6 mM (≈ 2060 to 4120 µg/mL)

Question: For CCc1ccc(-c2ccc(C(=O)Nc3cccc(-c4ccc(C(=O)NC(C(=O)N5CCNCC5)c5ccc(OCCCN(C)C)cc5)o4)c3)cc2)cc1 (centres unmarked) [Compound 35], which MIC [1] is on record?
Answer: 50 to 100 mM (≈ 35700 to 71400 µg/mL)

Question: And the MIC [2]?
Answer: 6 to 13 mM (≈ 4280 to 9280 µg/mL)

Question: Which results are given for Cc1ccc(F)cc1-c1ccc(C(=O)Nc2cccc(-c3ccc(C(=O)NC(C(=O)N4CCNCC4)c4ccc(OCCCN(C)C)cc4)o3)c2)cc1 (centres unmarked) [Compound 52]?
Answer: MIC [1]: 13 to 25 mM (≈ 9330 to 17900 µg/mL); MIC [2]: 6 to 13 mM (≈ 4310 to 9330 µg/mL)

Question: What does the source list for CCCc1ccc(-c2ccc(C(=O)Nc3cccc(-c4ccc(C(=O)NC(C(=O)N5CCNCC5)c5ccc(OCCCN(C)C)cc5)o4)c3)cc2)cc1 (centres unmarked) [Compound 36]?
Answer: MIC [1]: > 100 mM; MIC [2]: 13 to 25 mM (≈ 9460 to 18200 µg/mL)

Question: CN(C)CCCOc1ccc(C(NC(=O)c2ccc(-c3cccc(NC(=O)c4ccc(-c5c(F)cccc5F)cc4)c3)o2)C(=O)N2CCNCC2)cc1 (centres unmarked) [Compound 54] was tested. Which MIC [1] did it give?
Answer: 3 to 6 mM (≈ 2170 to 4330 µg/mL)

Question: And the MIC [2]?
Answer: 13 to 25 mM (≈ 9380 to 18000 µg/mL)

Question: For CN(C)CCCOc1ccc(C(NC(=O)c2ccc(-c3cccc(NC(=O)c4ccc(-c5cc(Cl)cc(Cl)c5)cc4)c3)o2)C(=O)N2CCNCC2)cc1 (centres unmarked) [Compound 49], which MIC [1] is on record?
Answer: > 100 mM

Question: What about the MIC [2] of the same compound?
Answer: > 100 mM

Question: What does the source list for CN(C)CCCOc1ccc(C(NC(=O)c2ccc(-c3cccc(NCc4ccc(-c5ccccc5)cc4)c3)o2)C(=O)N2CCNCC2)cc1 (centres unmarked) [Compound 65]?
Answer: MIC [1]: 13 to 25 mM (≈ 8730 to 16800 µg/mL); MIC [2]: 3 to 6 mM (≈ 2020 to 4030 µg/mL)

Question: Which MIC [1] does the source give for Cc1ccc(C)c(-c2ccc(C(=O)Nc3cccc(-c4ccc(C(=O)NC(C(=O)N5CCNCC5)c5ccc(OCCCN(C)C)cc5)o4)c3)cc2)c1 (centres unmarked) [Compound 43] here?
Answer: 25 to 50 mM (≈ 17800 to 35700 µg/mL)

Question: And the MIC [2]?
Answer: 13 to 25 mM (≈ 9280 to 17800 µg/mL)

Question: How did the MIC [1] turn out when CN(C)CCCOc1ccc(C(NC(=O)c2ccc(-c3cccc(N(C)Cc4ccc(-c5ccccc5)cc4)c3)o2)C(=O)N2CCNCC2)cc1 (centres unmarked) [Compound 66] was run?
Answer: 13 to 25 mM (≈ 8920 to 17100 µg/mL)

Question: What about the MIC [2] of the same compound?
Answer: 3 to 6 mM (≈ 2060 to 4120 µg/mL)

Question: How did the “activity in bacterial protein synthesis assay at 200:M” value [3] turn out when CN(C)CCCOc1ccc(C(NC(=O)c2ccc3[nH]c(=O)c(=O)[nH]c3c2)C(=O)N2CCNCC2)cc1 (centres unmarked) [Compound 22] was run?
Answer: inactive

Question: Which results are given for CN(C)CCCOc1ccc(C(NC(=O)c2ccc(-c3cccc(NC(=O)c4ccc(-c5ccc(C(C)(C)C)cc5)cc4)c3)o2)C(=O)N2CCNCC2)cc1 (centres unmarked) [Compound 37]?
Answer: MIC [1]: > 100 mM; MIC [2]: > 100 mM

Question: Which results are given for CN(C)CCCOc1ccc(C(NC(=O)c2ccc(-c3cccc(NC(=O)c4ccc(-c5ccccc5)cc4)c3)s2)C(=O)N2CCNCC2)cc1 (centres unmarked) [Compound 69]?
Answer: MIC [1]: 25 to 50 mM (≈ 17500 to 35100 µg/mL); MIC [2]: 25 to 50 mM (≈ 17500 to 35100 µg/mL)

Question: With CN(C)CCCOc1ccc(C(NC(=O)c2ccc(-c3cccc(NC(=O)c4ccc(-c5ccccc5)cc4F)c3)o2)C(=O)N2CCNCC2)cc1 (centres unmarked) [Compound 59] as the compound, how does the MIC [1] read?
Answer: 3 to 6 mM (≈ 2110 to 4220 µg/mL)

Question: And the MIC [2]?
Answer: 6 to 13 mM (≈ 4220 to 9150 µg/mL)

Question: With COC(=O)N1CCN(C(=O)C(NC(=O)c2ccc(-c3cccc(NC(=O)c4ccc(-c5ccccc5)cc4)c3)o2)c2ccc(OCCCN(C)C)cc2)CC1 (centres unmarked) [Compound 72] as the compound, how does the MIC [1] read?
Answer: > 100 mM

Question: And the MIC [2]?
Answer: > 100 mM

Question: How did the MIC [1] turn out when CCc1ccccc1-c1ccc(C(=O)Nc2cccc(-c3ccc(C(=O)NC(C(=O)N4CCNCC4)c4ccc(OCCCN(C)C)cc4)o3)c2)cc1 (centres unmarked) [Compound 41] was run?
Answer: 13 to 25 mM (≈ 9280 to 17800 µg/mL)

Question: And the MIC [2]?
Answer: 3 to 6 mM (≈ 2140 to 4280 µg/mL)

Question: With Cc1cc(C)c(-c2ccc(C(=O)Nc3cccc(-c4ccc(C(=O)NC(C(=O)N5CCNCC5)c5ccc(OCCCN(C)C)cc5)o4)c3)cc2)c(C)c1 (centres unmarked) [Compound 45] as the compound, how does the MIC [1] read?
Answer: 50 to 100 mM (≈ 36400 to 72800 µg/mL)

Question: What about the MIC [2] of the same compound?
Answer: 13 to 25 mM (≈ 9460 to 18200 µg/mL)

Question: With Cc1cc(C(=O)Nc2cccc(-c3ccc(C(=O)NC(C(=O)N4CCNCC4)c4ccc(OCCCN(C)C)cc4)o3)c2)ccc1-c1ccccc1 (centres unmarked) [Compound 62] as the compound, how does the MIC [1] read?
Answer: 3 to 6 mM (≈ 2100 to 4200 µg/mL)

Question: And the MIC [2]?
Answer: 12 to 25 mM (≈ 8400 to 17500 µg/mL)
